Source: patent US12612411B1, “Imidazopyrazine derivatives, process for preparation thereof, and their uses as luciferins” (INSTITUT PASTEUR, priority 2017, dated 2026)

Target: T1, nanoKAZ (Oplophorus gracilirostris, UniProt Q9GV45, A31E/A60N/A81I/F95D/I117V/K70R/L54V/L99Q/M102K/N193R/P142E/Q151K/Q38R/Q45L/V71I/Y165I)
T1 construct: luciferase catalytic domain (nanoKAZ, 19 kDa) from the Oplophorus-derived luciferase
Test: Michaelis-Menten parameters of nanoKAZ from Lineweaver-Burk representation
Format: biochemical
Conditions: extrapolated from Lineweaver-Burk, constant enzyme concentration
Excerpt: The two dotted lines (linear regression) are converging to the same intercept with the x-axis (−1/Km) and different intercepts with the y-axis (1/Vmax). The equations of the two linear regressions are indicated and the corresponding correlation factors (R^2) with the experimental data are reported.
Considering the hypothesis of a Michaelis-Menten mechanism for the nanoKAZ, the Km and Vmax were extrapolated from the Lineweaver-Burk representation of the enzyme activity catalyzing either Q-1 or Q-3. […] The data have been fitted with linear regression with satisfying high correlation factors (R). The Km are the same for both substrates (Km=2 μM) whereas the Vmax is 3-times lower for Q-1 (0.6·10^6 RLU/sec) than for Q-3 (2.0·10^6 RLU/sec).

T1 sequence (Q9GV45 other isoform, or with tags, fused parts or gaps with the stated changes): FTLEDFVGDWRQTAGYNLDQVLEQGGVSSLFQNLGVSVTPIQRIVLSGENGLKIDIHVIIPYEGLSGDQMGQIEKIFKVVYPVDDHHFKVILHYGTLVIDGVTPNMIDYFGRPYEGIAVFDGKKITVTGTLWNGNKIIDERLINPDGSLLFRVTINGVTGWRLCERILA

Work on `O=c1c(Cc2ccco2)nc2c(Cc3ccccc3)[nH]c(-c3ccccc3)cn1-2` [Q-1, 8-benzyl-2-(furan-2-ylmethyl)-6-phenylimidazo[1,2-a]pyrazin-3(7H)-one, reference compound] yielded a Km of 2000 nM.

`Cc1ccc(Cc2nc3c(Cc4ccccc4)[nH]c(-c4ccccc4)cn-3c2=O)o1` [Q-3, 8-benzyl-2-((5-methylfuran-2-yl)methyl)-6-phenylimidazo[1,2-a]pyrazin-3(7H)-one] gave a Km of 2000 nM.
